Measured values: patent US20110281852A1 (priority 2010, published 2011)
Read-outs that look alike come from different tables or passages of the source.

Experiments:
3T3-L1 cells [1] = experiment: Oil-Red-O staining and quantification, berberine with amentoflavone in 3T3-L1 (Example 6); assay type: cell-based, mouse; details: Mus musculus
Protocol: (§1) Oil-Red-O staining and quantification: Oil-Red-O Staining and its quantification were performed as previously reported. Briefly, medium was removed and cells were washed with PBS twice, fixed with 3.7% formalin at room temperature for 30 min, then rinsed with pure water, added 60% isopropanol and incubated for 5 minutes, then moved out isopropanol and stained cells with diluted Oil-Red-O solution (Oil-Red-O store solution (3 mg/ml in pure isopropanol): water=3:2) at room temperature for 10 min. Then the diluted Oil-Red-O solution was removed and cells were washed 3 times with pure water. After staining, the cells were washed twice with 70% ethanol to remove excess stain. Stained oil droplets in the cells were dissolved in isopropanol containing 4% Nonidet-P40 (Fisher Scientific, Pittsburgh, Pa., USA) shaking in 37° C. at speed 100 rpm for 1 hour, and OD values were measured at an absorbance of 490 nm and then normalized with control group.

[2] = in vivo; cited from earlier work
SREBP-1 = experiment: Real-time RT-PCR, SREBP-1 mRNA in 3T3-L1; assay type: cell-based, mouse; details: 8 days
Description: (§2) Realtime RT-PCR: Real-time reverse transcriptase polymerase chain reaction (RT-PCR) analysis was used to measure mRNA expression of genes SREBP-1, PPARγ, C/EBPα, low density lipoprotein receptor (LDLR), Adiponectin, and fatty acid synthase (FAS) under the control of β-actin. Briefly, total RNA was isolated from 3T3-L1 cells following treatment for 8 days with Trizol reagent (Invitrogen, Carlsbad, Calif., USA) according to the manufacturer's instruction. RNA was quantified using absorption of light at 260 nm, and sample purity was checked by OD 260 nm/280 nm. 0.8 μg of total RNA from each sample was used for reverse transcription reaction using the TaqMan Reverse Transcription Reagents (Applied Biosystems, Foster City, Calif., USA) according to the manufacturers' instructions. PCR was done using the SYBR green Master Mix (Applied Biosystems, Foster City, Calif., USA) according to the manufacturers' instructions. The temperature cycling conditions of amplification were as follows: an initial step of denaturation at 95° C. for 10 min, 40 cycles of denaturation at 95° C. for 30 s, annealing at 55° C. for 30 s, and elongation at 72° C. for 30 s. Realtime RT-PCR was performed using Mx3000P Realtime Thermocyclers (Statagene, La Jolla, Calif., USA). The relative mRNA levels of these genes were calculated by 2-delta delta CT method and normalized with control groups.

[3] = MTT assay, 3T3-L1 viability during differentiation with clozapine, risperidone, berberine (Example 2); assay type: cell-based, mouse; details: mouse, 3T3-L1 cells during differentiation induction; read-out: reduction of cell viability
Protocol: (§3) Cell culture and drug treatment: 3T3-L1 cells (American Type Culture Collection, Manassas, Va., USA) were cultured at 37° C. in a humidified 5% CO2 atmosphere and grown in a DMEM (Sigma-Aldrich, St. Louis, Mo. USA) supplemented with 10% Fetal Bovine Serum (FBS, Atlanta Biologicals Corp., Lawrenceville, Ga., USA), 100 units/ml penicillin and 100 μg/ml streptomycin. Differentiation was induced by addition of 167 nM insulin, 520 μM isobutylmethylxanthine (IBMX), and 1 μM dexamethasone for 2 days and then only with 167 nM insulin for 6 days. Detailed protocol was described as our previous report (Hu et al., Phytomedicine (2009) 16(9):864-873).
(§4) Medium was removed after differentiation and treatment for 8 days, MTT (Methylthiazolyldiphenyl—tetrazolium bromide 0.5 mg/ml, 50 μl/well) was added.

PPARγ = experiment: Real-time RT-PCR, PPARγ mRNA in 3T3-L1; assay type: cell-based, mouse; details: 15 μM clozapine, 8 days
Description: as §2

C/EBPα = experiment: Real-time RT-PCR, C/EBPα mRNA in 3T3-L1; assay type: cell-based, mouse; details: 8 days
Description: as §2

3T3-L1 cells [4] = experiment: Oil-Red-O staining and quantification, clozapine/risperidone induced adipogenesis in 3T3-L1 (Example 2); assay type: cell-based, mouse; details: 8 days
Protocol: Detailed protocol was described as our previous report (Hu et al., Phytomedicine (2009) 16(9):864-873).
as §1, with “reported (Liu et al., Sinica (2004) 25:1052-1057).” for “reported.”, “water. Images were obtained using an Olympus IX70 inverted microscope equipped for phase-contrast microscopy (Olympus, Tokyo, Japan).” for “water.”

[5] = tested on: low density lipoprotein receptor (LDLR); experiment: Real-time RT-PCR, LDLR mRNA in 3T3-L1; assay type: cell-based, mouse; details: 8 days
Description: as §2

Adiponectin = experiment: Real-time RT-PCR, Adiponectin mRNA in 3T3-L1; assay type: cell-based, mouse; details: 8 days
Description: as §2

3T3-L1 cells [6] = experiment: MTT assay, 3T3-L1 viability during differentiation with clozapine, risperidone, berberine (Example 2); assay type: cell-based, mouse; details: day 8 of differentiation
Protocol: as §3, §4

[7] = tested on: fatty acid synthase (FAS); experiment: Real-time RT-PCR, FAS mRNA in 3T3-L1; assay type: cell-based, mouse; details: 50 μM risperidone, 8 days
Description: as §2

[8] = over 10 weeks of treatment; cited from earlier work

O=c1cc(-c2ccc(O)c(-c3c(O)cc(O)c4c(=O)cc(-c5ccc(O)cc5)oc34)c2)oc2cc(O)cc(O)c12 [amentoflavone, reference compound]
inhibition at 25 µM (3T3-L1 cells [1]; 3T3-L1, read-out: enhancement of the inhibitory effects of berberine, 25 μM amentoflavone added to 4 μM berberine, with 15 μM clozapine): 10.1% | inhibition at 25 µM (3T3-L1 cells [1]; 3T3-L1, read-out: enhancement of the inhibitory effects of berberine, 25 μM amentoflavone added to 8 μM berberine, with 15 μM clozapine): 7.8%

CCCCCCCCCCC[C@@H](C[C@@H]1OC(=O)[C@H]1CCCCCC)OC(=O)[C@H](CC(C)C)NC=O [orlistat]
effect in antipsychotic-induced weight gain [2]: no statistically significant effect

CN1CCN(C2=Nc3cc(Cl)ccc3Nc3ccccc32)CC1 [clozapine, reference compound]
increase of SREBP-1 mRNA expression vs control group (SREBP-1; 15 μM clozapine): 27.6% | cytotoxicity at 8 days, 15 μM [3]: 6.2% | cytotoxicity at 8 days, 30 μM [3]: 12.5% | increase of PPARγ mRNA expression vs control group (PPARγ): 68.3% | increase of C/EBPα mRNA expression vs control group (C/EBPα; 15 μM clozapine): 45.7% | induced adipogenesis vs vehicle treated group (3T3-L1 cells [4]; 15 μM clozapine): 37.4% | induced adipogenesis vs vehicle treated group (3T3-L1 cells [4]; 30 μM clozapine): 25.2% | increase of LDLR mRNA expression vs control group ([5]; 15 μM clozapine): 63.1% | increase of adiponectin mRNA expression vs control group (Adiponectin; 15 μM clozapine): 45.5%

CC(C)CC(N(C)C)C1(c2ccc(Cl)cc2)CCC1 (stereo not drawn) [sibutramine]
effect in antipsychotic-induced weight gain [2]: no statistically significant effect

CN(C)C(=N)N=C(N)N [metformin]
effect in antipsychotic-induced weight gain [2]: no statistically significant effect

Cc1nc2n(c(=O)c1CCN1CCC(c3noc4cc(F)ccc34)CC1)CCCC2 [risperidone, reference compound]
increase of SREBP-1 mRNA expression vs control group (SREBP-1; 50 μM risperidone): 133.5% | enhancement of cell viability (3T3-L1 cells [6]; printed 'for 15 μM clozapine treatment'): 14% | enhancement of cell viability (3T3-L1 cells [6]; printed 'for 30 μM clozapine treatment'): 16.8% | increase of C/EBPα mRNA expression vs control group (C/EBPα; 50 μM risperidone): 48.8% | induced adipogenesis vs vehicle treated group (3T3-L1 cells [4]; 25 μM risperidone): 14.1% | induced adipogenesis vs vehicle treated group (3T3-L1 cells [4]; 50 μM risperidone): 26.5% | increase of FAS mRNA expression vs control group [7]: 34.4% | increase of LDLR mRNA expression vs control group ([5]; 50 μM risperidone): 61.5% | weight gain [8]: ~2 kg | increase of adiponectin mRNA expression vs control group (Adiponectin; 50 μM risperidone): 63.8%
